Measurements: patent US20230381157A1, “RIFABUTIN FOR THE TREATMENT OF ACINETOBACTER BAUMANNII” (University of Southern California, priority 2018, published 2023)
Converted amounts (≈) assume the structure as drawn.

How the values were obtained:
K. pneumonia = assay: MIC, broth microdilution; format: cell-based; details: Klebsiella pneumoniae, K. pneumonia KPC-KP1
S. aureus LAC = format: cell-based, Staphylococcus aureus; details: TSA
A. baumannii = assay: MIC, broth microdilution, A. baumannii clinical isolates / strain panel; format: cell-based, Acinetobacter baumannii; details: for MIC50 / MIC90: A. baumannii strain panel
[1] = system: GFP expressing reporter strain of A. baumannii HUMC1; format: cell-based, Acinetobacter baumannii; details: addition of amino acids to RPMI vs RPMI alone; 6 hours
E. coli = assay: MIC, broth microdilution; format: cell-based; details: Escherichia coli

CO[C@H]1/C=C/O[C@@]2(C)Oc3c(C)c(O)c4c(c3C2=O)C2=NC3(CCN(CC(C)C)CC3)NC2=C(NC(=O)/C(C)=C\C=C\[C@H](C)[C@H](O)[C@@H](C)[C@@H](O)[C@@H](C)[C@H](OC(C)=O)[C@@H]1C)C4=O [rifabutin]
MIC (K. pneumonia; MHII): 25 µg/mL (≈ 29.5 µM) | MIC (K. pneumonia; RPMI): 12.5 µg/mL (≈ 14.8 µM) | Mutation Frequency (S. aureus LAC): 1.10E−07 | fold more potent than rifampin (RIF) (A. baumannii; A. baumannii, RPMI with serum): 133 fold | Rifabutin MIC (A. baumannii; AB044, MHII): 3.12 µg/mL | Rifabutin MIC (A. baumannii; AB044, RPMI): 0.78 µg/mL | Rifabutin MIC (A. baumannii; AB046, MHII): 0.19 µg/mL | Rifabutin MIC (A. baumannii; AB046, MHII (first line)): 6.25 µg/mL | Rifabutin MIC (A. baumannii; AB307-0294, MHII): 6.25 µg/mL | Rifabutin MIC (A. baumannii; AB307-0294, RPMI): < 0.05 µg/mL | Rifabutin MIC (A. baumannii; AB15827, MHII): 3.13 µg/mL | Rifabutin MIC (A. baumannii; AB15827, RPMI): 0.2 µg/mL | Rifabutin MIC (A. baumannii; ARLG-1314, MHII): 6.25 µg/mL | Rifabutin MIC (A. baumannii; ARLG-1314, RPMI): < 0.05 µg/mL | Rifabutin MIC (A. baumannii; ARLG-1777, MHII): 6.25 µg/mL | Rifabutin MIC (A. baumannii; ARLG-1777, RPMI): 3.13 µg/mL | Rifabutin MIC (A. baumannii; ARLG-1915, MHII): 3.13 µg/mL | Rifabutin MIC (A. baumannii; ARLG-1915, RPMI): 0.1 µg/mL | Rifabutin MIC (A. baumannii; ATCC 17978, MHII): 3.12 µg/mL | Rifabutin MIC (A. baumannii; ATCC 17978, RPMI): < 0.05 µg/mL | MIC (A. baumannii; Acinetobacter baumannii, A. baumannii (strain not named), MHII): 4 µg/mL (≈ 4.72 µM) | MIC (A. baumannii; Acinetobacter baumannii, A. baumannii (strain not named), RPMI with serum): 0.031 µg/mL (≈ 0.0366 µM) | MIC (A. baumannii; Acinetobacter baumannii, A. baumannii VA-AB21, MHII): 3.12 µg/mL (≈ 3.69 µM) | MIC (A. baumannii; Acinetobacter baumannii, A. baumannii VA-AB21, RPMI): 0.391 µg/mL (≈ 0.462 µM) | MIC50 (A. baumannii; Acinetobacter baumannii, CAMHB): 3.13 µg/mL (≈ 3.7 µM) | MIC90 (A. baumannii; Acinetobacter baumannii, CAMHB): 6.25 µg/mL (≈ 7.38 µM) | MIC50 (A. baumannii; Acinetobacter baumannii, RPMI): 0.39 µg/mL (≈ 0.46 µM) | MIC90 (A. baumannii; Acinetobacter baumannii, RPMI): 3.13 µg/mL (≈ 3.7 µM) | MIC (A. baumannii; Acinetobacter baumannii, ATCC17978, A. baumannii ATCC17978 and HUMC1, MHII): 2 µg/mL (≈ 2.36 µM) | MIC (A. baumannii; Acinetobacter baumannii, ATCC17978, A. baumannii ATCC17978 and HUMC1, RPMI): < 0.0625 µg/mL | fold lower MIC in RPMI than in Mueller-Hinton-based medium (CAMHB) (A. baumannii; Acinetobacter baumannii, up to): up to 200 fold | Rifabutin MIC (A. baumannii; HUMC6, MHII): 25 µg/mL | Rifabutin MIC (A. baumannii; HUMC6, RPMI): 3.13 µg/mL | Rifabutin MIC (A. baumannii; HUMC10, MHII): 12.5 µg/mL | Rifabutin MIC (A. baumannii; HUMC10, RPMI): < 0.05 µg/mL | Rifabutin MIC (A. baumannii; LAC -- 4, MHII): 0.78 µg/mL | Rifabutin MIC (A. baumannii; LAC -- 4, RPMI): 1.56 µg/mL | Rifabutin MIC (A. baumannii; LACUSC-01, MHII): 6.25 µg/mL | Rifabutin MIC (A. baumannii; LACUSC-01, RPMI): < 0.05 µg/mL | Rifabutin MIC (A. baumannii; NIH1, MHII): 3.13 µg/mL | Rifabutin MIC (A. baumannii; NIH1, RPMI): 3.13 µg/mL | Rifabutin MIC (A. baumannii; UH118, MHII): 3.13 µg/mL | Rifabutin MIC (A. baumannii; UH118, RPMI): 0.2 µg/mL | Rifabutin MIC (A. baumannii; UH516, MHII): > 25 µg/mL | Rifabutin MIC (A. baumannii; UH516, RPMI): > 25 µg/mL | Rifabutin MIC (A. baumannii; UH2207, MHII): 6.25 µg/mL | Rifabutin MIC (A. baumannii; UH2207, RPMI): 3.13 µg/mL | Rifabutin MIC (A. baumannii; UH6507, MHII): 3.13 µg/mL | Rifabutin MIC (A. baumannii; UH6507, RPMI): 0.39 µg/mL | Rifabutin MIC (A. baumannii; VA-AB21, MHII): 3.12 µg/mL | Rifabutin MIC (A. baumannii; VA-AB21, RPMI): 0.391 µg/mL | Rifabutin MIC (A. baumannii; VA-AB74, MHII): 6.25 µg/mL | Rifabutin MIC (A. baumannii; VA-AB74, RPMI): 3.13 µg/mL | inhibition of GFP fluorescence [1]: less inhibition of GFP fluorescence | MIC (E. coli; E. coli DH5a, MHII): 6.25 µg/mL (≈ 7.38 µM) | MIC (E. coli; E. coli JJ1886, MHII): 6.25 µg/mL (≈ 7.38 µM) | MIC (E. coli; E. coli JJ1886, RPMI): 6.25 µg/mL (≈ 7.38 µM)
